The record followed here is patent US6100291A, “Pyrrolidine-indole compounds having 5-HT6 affinity” (Allelix Biopharmaceuticals Inc., priority 1998, dated 2000).

Read-outs that look alike come from different tables or passages of the source.

The target of experiment [1] is T1, human 5-HT6 receptor (Homo sapiens, UniProt P50406).
T1 construct: expressed in transfected cells
Briefly: Binding affinity for the 5-HT6 receptor (3H-LSD radioligand binding, membranes of cells expressing the 5-HT6 receptor). The conditions noted are these: 60 minute incubation at 37° C. On the procedure: All of the compounds of the invention were evaluated using cell types receptive specifically to the 5-HT6 receptor (for cloning and characterization of the human 5-HT6 receptor see Kohen, et al. J. Neurochemistry, 66, 1996: 47-56). […] After a 60 minute incubation at 37° C., the incubation was terminated by vacuum filtration. The filters were washed with buffer and the filters were counted for radioactivity using liquid scintillation spectrometry. The affinity of the test compound for the 5-HT6 receptor was determined by computer-assisted analysis of the data and determining the amount of the compound necessary to inhibit 50% of the binding of the radioligand to the receptor. Concentrations ranging from 10^-11 M to 10^-5 M of the test compound were evaluated.

Experiment [2] addresses T1, human 5-HT6 receptor. Briefly: Effect on the cAMP response of human 5-HT6 receptors in stably transfected HEK293 cells (EIA). Type of experiment: cell-based.
Description: The antagonist (or agonist) property of compounds for human 5-HT6 receptors was determined by testing their effect on cAMP accumulation in stably transfected HEK293 cells.
Binding of an agonist to the human 5-HT6 receptor will lead to a increase in adenyl cyclase activity. A compound which is an agonist will show an increase in cAMP production and a compound which is an antagonist will block the agonist effect.
Cell Assay: Human 5-HT6 receptors were cloned and stably expressed in HEK293 cells. These cells were plated in 6 well plates in DMEM/F12 media with 10% fetal calf serum (FCS) and 500 μg/mL G418 and incubated at 37° C. in a CO2 incubator. The cells were allowed to grow to about 70% confluence before initiation of the experiment.
On the day of the experiment, the culture media was removed, and the cells were washed once with serum free medium (SFM). Two mL of SFM+IBMX media was added and incubated at 37° C. for 10 min. The media were removed and fresh SFM+IBMX media containing various compounds, and 1 μM serotonin (as antagonist) were added to the appropriate wells and incubated for 30 min. Following incubation, the media were removed and the cells were washed once with 1 mL of PBS (phosphate buffered saline). Each well was treated with 1 mL cold 95% ethanol and 5 mM EDTA (2:1) at 4° C. for 1 hour. The cells were then scraped and transferred into Eppendorf tubes. The tubes were centrifuged for 5 min at 4° C., and the supernatants were stored at 4° C. until assayed.
cAMP Measurement: cAMP content was determined by EIA (enzyme-immunoassay) using the Amersham Biotrak cAMP EIA kit (Amersham RPN 225). The procedure used is as described for the kit. Briefly, cAMP is determined by the competition between unlabeled cAMP and a fixed quantity of peroxidase-labelled cAMP for the binding sites on anti-cAMP antibody. The antibody is immobilized onto polystyrene microtitre wells precoated with a second antibody. […] The reaction is stopped by the addition of 100 μL 1.0 M sulphuric acid and the resultant color read by a microtitre plate spectrophotometer at 450 nM within 30 minutes. […]
A further experiment has as its target T2, human 5-HT2C receptor (Homo sapiens, UniProt P28335).
T2 sequence (P28335 33-458): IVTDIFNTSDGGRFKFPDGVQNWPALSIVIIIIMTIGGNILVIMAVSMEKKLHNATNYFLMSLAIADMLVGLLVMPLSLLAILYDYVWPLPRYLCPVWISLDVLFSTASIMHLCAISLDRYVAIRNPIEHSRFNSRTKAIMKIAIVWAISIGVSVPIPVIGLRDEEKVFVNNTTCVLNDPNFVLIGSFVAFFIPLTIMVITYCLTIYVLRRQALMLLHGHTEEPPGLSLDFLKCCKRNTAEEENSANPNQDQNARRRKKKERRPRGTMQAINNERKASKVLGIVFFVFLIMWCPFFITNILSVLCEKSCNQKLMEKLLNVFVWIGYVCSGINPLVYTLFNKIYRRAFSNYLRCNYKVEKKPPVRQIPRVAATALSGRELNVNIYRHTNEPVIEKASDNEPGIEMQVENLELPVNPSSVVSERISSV
The experiment in a line: Binding selectivity for 5-HT6 relative to the human 5-HT2C receptor. The conditions noted are these: 5-HT6 vs human 5-HT2C receptor.

Another experiment has as its target human 5-HT7 receptor (Homo sapiens, UniProt P34969). Briefly: Binding selectivity for 5-HT6 relative to the human 5-HT7 receptor. The conditions noted are these: 5-HT6 vs human 5-HT7 receptor.

T1 sequence (P50406 whole entry): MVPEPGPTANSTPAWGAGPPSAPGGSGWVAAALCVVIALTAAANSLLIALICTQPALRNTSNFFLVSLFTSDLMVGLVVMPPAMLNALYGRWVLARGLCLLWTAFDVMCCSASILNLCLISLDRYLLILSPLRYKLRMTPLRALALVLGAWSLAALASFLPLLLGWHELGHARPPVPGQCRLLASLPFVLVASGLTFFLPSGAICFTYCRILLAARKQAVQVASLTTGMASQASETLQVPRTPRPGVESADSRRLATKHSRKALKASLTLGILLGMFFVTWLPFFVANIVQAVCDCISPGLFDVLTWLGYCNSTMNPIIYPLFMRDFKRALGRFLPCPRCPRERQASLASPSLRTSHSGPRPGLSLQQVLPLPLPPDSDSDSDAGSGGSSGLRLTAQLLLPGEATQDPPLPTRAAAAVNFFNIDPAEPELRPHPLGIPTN
Chain of human 5-HT7 receptor (P34969 whole entry): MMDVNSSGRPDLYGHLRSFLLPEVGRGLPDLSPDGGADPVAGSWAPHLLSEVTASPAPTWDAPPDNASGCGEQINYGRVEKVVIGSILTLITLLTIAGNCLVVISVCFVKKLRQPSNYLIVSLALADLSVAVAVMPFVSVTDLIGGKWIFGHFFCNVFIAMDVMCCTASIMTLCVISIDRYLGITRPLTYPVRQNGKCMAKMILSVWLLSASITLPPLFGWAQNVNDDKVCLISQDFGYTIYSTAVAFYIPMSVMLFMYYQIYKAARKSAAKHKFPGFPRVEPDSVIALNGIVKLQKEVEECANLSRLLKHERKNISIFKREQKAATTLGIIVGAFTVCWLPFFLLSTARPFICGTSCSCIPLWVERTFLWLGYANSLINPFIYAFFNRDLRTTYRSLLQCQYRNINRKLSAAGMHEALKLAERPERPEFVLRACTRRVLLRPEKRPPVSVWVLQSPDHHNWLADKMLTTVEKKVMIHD

Take `CN1CCC[C@@H]1Cc1cn(S(=O)(=O)c2ccccc2)c2ccc(OC3CCCCC3)cc12` [Example 4, (R)-5-Cyclohexyloxy-3-(1-methyl-2-pyrrolidinylmethyl)-1-phenylsulfonylindole]: the Ki (in general, a measure of affinity in units of concentration, obtained from inhibition or displacement) on human 5-HT6 receptor [1] (Ki) was not above 1 nM.

Compound `CN1CCC[C@@H]1Cc1cn(S(=O)(=O)c2ccccc2)c2ccc(Cl)cc12` [Example 5d, (R)-5-Chloro-3-(1-methyl-2-pyrrolidinylmethyl)-1-phenylsulfonylindole] registered an inhibition constant (Ki) at human 5-HT6 receptor [1] (Ki) not above 1 nM. Besides, the EC50 (in general, the concentration giving half of the maximal effect) at human 5-HT6 receptor [2] turned out to be 8.4 nM.

`CN1CCC[C@@H]1Cc1cn(C(=O)c2ccccc2)c2ccccc12` [Example 5g, (R)-1-Benzoyl-3-(1-methyl-2-pyrrolidinylmethyl)indole] yielded an inhibitory constant (Ki) at human 5-HT6 receptor [1] (Ki) not above 10 nM. Take `CN1CCC[C@@H]1Cc1cn(C(=O)c2ccccc2Cl)c2ccc(OC3CCCCC3)cc12` [Example 5j, (R)-1-(2-Chlorobenzoyl)-5-cyclohexyloxy-3-(1-methyl-2-pyrrolidinylmethyl)indole]: the concentration for a half-maximal effect (EC50) at human 5-HT6 receptor [2] turned out to be 64 nM.

Take `CN1CCC[C@@H]1Cc1cn(C(=O)c2c(Cl)cccc2Cl)c2ccc(OC3CCCCC3)cc12` [Example 5n, (R)-5-Cyclohexyloxy-1-(2,6-dichlorobenzoyl)-3-(1-methyl-2-pyrrolidinylmethyl)indole]: on human 5-HT2C receptor, the “greater affinity for human 5-HT6 receptor relative to human 5-HT2C” value is reported as not below 36 fold. In addition, the “greater affinity for human 5-HT6 receptor relative to human 5-HT7” value on human 5-HT7 receptor is on record as not below 36 fold. On human 5-HT6 receptor [1] (Ki), `CN1CCC[C@@H]1Cc1cn(C(=O)c2ccccc2)c2ccc(Cl)cc12` [Example 5p, (R)-1-Benzoyl-5-chloro-3-(1-methyl-2-pyrrolidinylmethyl)indole] yielded an inhibition constant Ki not above 1 nM. In the case of `CN1CCC[C@@H]1Cc1cn(C(=O)c2ccc(F)cc2)c2ccc(Cl)cc12` [Example 5r, (R)-5-Chloro-1-(4-fluorobenzoyl)-3-(1-methyl-2-pyrrolidinylmethyl)indole], on human 5-HT2C receptor, the “greater affinity for human 5-HT6 receptor relative to human 5-HT2C” value was not below 36 fold. Also, the “greater affinity for human 5-HT6 receptor relative to human 5-HT7” value at human 5-HT7 receptor was not below 36 fold. Also, the 50% effective concentration (EC50) on human 5-HT6 receptor [2] stood at 6 nM.

For `CN1CCC[C@@H]1Cc1cn(C(=O)c2ccccc2)c2ccc(OC3CCCCC3)cc12` [Example 7a, (R)-5-Cyclohexyloxy-3-(1-methyl-2-pyrrolidinylmethyl)-1-benzoylindole], the Ki on human 5-HT6 receptor [1] (Ki) was not above 10 nM. On to `Cc1ccc(S(=O)(=O)n2cc(C[C@H]3CCCN3C)c3cc(F)ccc32)cc1` [Example 7c, (R)-5-Fluoro-1-(4-methylphenylsulphonyl)-3-(1-methyl-2-pyrrolidinylmethyl)-indole], for which, at human 5-HT6 receptor [1] (Ki), the inhibitory constant (Ki) is not above 1 nM. `CN1CCC[C@@H]1Cc1cn(C(=O)c2ccccc2)c2ccc(Br)cc12` [Example 7d, (R)-1-Benzoyl-5-bromo-3-(1-methyl-2-pyrrolidinylmethyl) indole] showed a Ki at human 5-HT6 receptor [1] (Ki) not above 1 nM. For `CN1CCC[C@@H]1Cc1cn(S(=O)(=O)c2ccccc2)c2ccc(OCc3ccccc3)cc12` [Example 7e, (R)-5-Benzyloxyindole-3-(1-methyl-2-pyrrolidinylmethyl)-1-phenylsulfonylindole], the inhibition constant Ki on human 5-HT6 receptor [1] (read-out: Ki) was not above 1 nM. In turn, `CN1CCC[C@@H]1Cc1cn(S(=O)(=O)c2ccccc2)c2ccc(O)cc12` [Example 10, (R)-1-Phenylsulfonyl-5-hydroxy-3-(1-methyl-2-pyrrolidinylmethyl)indole] displayed an inhibitory constant (Ki) on human 5-HT6 receptor [1] (Ki) not above 10 nM.
